Laboratory results reported in PubChem BioAssay (NCI).
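GI50 is the concentration that inhibits growth by half. The concentration for full growth arrest is given as TGI.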

How the values were obtained:
Assay in all cases: NCI anticancer screen, dose series, 384-well format
786-0 renal = system: 786-0 renal
A498 renal = system: A498 renal
ACHN renal = system: ACHN renal
BT-549 breast = system: BT-549 breast
CAKI-1 renal = system: CAKI-1 renal
CCRF-CEM leukemia = system: CCRF-CEM leukemia
COLO 205 colon = system: COLO 205 colon
DU-145 prostate = system: DU-145 prostate
EKVX NSCLC = system: EKVX NSCLC
HCC-2998 colon = system: HCC-2998 colon
HCT-116 colon = system: HCT-116 colon
HCT-15 colon = system: HCT-15 colon
HOP-62 NSCLC = system: HOP-62 NSCLC
HOP-92 NSCLC = system: HOP-92 NSCLC
IGROV1 ovarian = system: IGROV1 ovarian
K-562 leukemia = system: K-562 leukemia
LOX IMVI melanoma = system: LOX IMVI melanoma
M14 melanoma = system: M14 melanoma
MALME-3M melanoma = system: MALME-3M melanoma
MCF7 breast = system: MCF7 breast
MDA-MB-231 breast = system: MDA-MB-231 breast
MDA-MB-468 breast = system: MDA-MB-468 breast
MOLT-4 leukemia = system: MOLT-4 leukemia
NCI-H322M lung = system: NCI-H322M lung
NCI-H460 NSCLC = system: NCI-H460 NSCLC
NCI/ADR-RES ovarian = system: NCI/ADR-RES ovarian
OVCAR-3 ovarian = system: OVCAR-3 ovarian
OVCAR-4 ovarian = system: OVCAR-4 ovarian
OVCAR-5 ovarian = system: OVCAR-5 ovarian
OVCAR-8 ovarian = system: OVCAR-8 ovarian
PC-3 prostate = system: PC-3 prostate
RPMI-8226 leukemia = system: RPMI-8226 leukemia
RXF 393 renal = system: RXF 393 renal
SF-268 CNS = system: SF-268 CNS
SF-295 CNS = system: SF-295 CNS
SF-539 CNS = system: SF-539 CNS
SK-MEL-2 melanoma = system: SK-MEL-2 melanoma
SK-MEL-28 melanoma = system: SK-MEL-28 melanoma
SK-OV-3 ovarian = system: SK-OV-3 ovarian
SNB-19 CNS = system: SNB-19 CNS
SNB-75 CNS = system: SNB-75 CNS
SR leukemia = system: SR leukemia
SW-620 colon = system: SW-620 colon
T-47D breast = system: T-47D breast
U251 glioblastoma = system: U251 glioblastoma
UACC-62 melanoma = system: UACC-62 melanoma
UO-31 renal = system: UO-31 renal

For N=C(N)c1ccc2nc(-c3cc(CC(=O)N[C@@H](CC(=O)O)C(=O)O)cc(-c4cc(S(N)(=O)=O)ccc4O)c3O)[nH]c2c1, the GI50 ([…]-0 renal) was greater than 100 µM, the TGI (786-0 renal) was greater than 100 µM and the GI50 (A498 renal) was greater than 100 µM. The TGI (A498 renal) was greater than 100 µM, the GI50 (ACHN renal) was greater than 100 µM and the TGI (ACHN renal) was greater than 100 µM. The GI50 (BT-549 breast) was greater than 100 µM, the TGI (BT-549 breast) was greater than 100 µM and the GI50 (CAKI-1 renal) was greater than 100 µM. For the same molecule, the TGI (CAKI-1 renal) was greater than 100 µM, the GI50 (CCRF-CEM leukemia) was greater than 100 µM and the TGI (CCRF-CEM leukemia) was greater than 100 µM. For the same molecule, the GI50 (COLO 205 colon) was greater than 100 µM, the TGI (COLO 205 colon) was greater than 100 µM and the GI50 (DU-145 prostate) was greater than 100 µM. The TGI (DU-145 prostate) was greater than 100 µM, the GI50 (EKVX NSCLC) was greater than 100 µM and the TGI (EKVX NSCLC) was greater than 100 µM. The GI50 (HCC-2998 colon) was greater than 100 µM, the TGI (HCC-2998 colon) was greater than 100 µM and the GI50 (HCT-116 colon) was greater than 100 µM. The TGI (HCT-116 colon) was greater than 100 µM, the GI50 (HCT-15 colon) was greater than 100 µM and the TGI (HCT-15 colon) was greater than 100 µM. It also gave a GI50 (HOP-62 NSCLC) greater than 100 µM, a TGI (HOP-62 NSCLC) greater than 100 µM and a GI50 (HOP-92 NSCLC) greater than 100 µM. For the same molecule, the TGI (HOP-92 NSCLC) was greater than 100 µM, the GI50 (IGROV1 ovarian) was greater than 100 µM and the TGI (IGROV1 ovarian) was greater than 100 µM. It also gave a GI50 (K-562 leukemia) greater than 100 µM, a TGI (K-562 leukemia) greater than 100 µM and a GI50 (LOX IMVI melanoma) greater than 100 µM. The TGI (LOX IMVI melanoma) was greater than 100 µM, the GI50 (M14 melanoma) was greater than 100 µM and the TGI (M14 melanoma) was greater than 100 µM. The GI50 (MALME-3M melanoma) was greater than 100 µM, the TGI (MALME-3M melanoma) was greater than 100 µM and the GI50 (MCF7 breast) was greater than 71.5 µM. It also gave a TGI (MCF7 breast) greater than 100 µM, a GI50 (MDA-MB-231 breast) greater than 100 µM and a TGI (MDA-MB-231 breast) greater than 100 µM. For the same molecule, the GI50 (MDA-MB-468 breast) was greater than 100 µM, the TGI (MDA-MB-468 breast) was greater than 100 µM and the GI50 (MOLT-4 leukemia) was greater than 100 µM. The TGI (MOLT-4 leukemia) was greater than 100 µM, the GI50 (NCI-H322M lung) was greater than 100 µM and the TGI (NCI-H322M lung) was greater than 100 µM. For the same molecule, the GI50 (NCI-H460 NSCLC) was greater than 100 µM, the TGI (NCI-H460 NSCLC) was greater than 100 µM and the GI50 (NCI/ADR-RES ovarian) was greater than 100 µM. The TGI (NCI/ADR-RES ovarian) was greater than 100 µM, the GI50 (OVCAR-3 ovarian) was greater than 100 µM and the TGI (OVCAR-3 ovarian) was greater than 100 µM. It also gave a GI50 (OVCAR-4 ovarian) greater than 100 µM, a TGI (OVCAR-4 ovarian) greater than 100 µM and a GI50 (OVCAR-5 ovarian) greater than 100 µM. It also gave a TGI (OVCAR-5 ovarian) greater than 100 µM, a GI50 (OVCAR-8 ovarian) greater than 100 µM and a TGI (OVCAR-8 ovarian) greater than 100 µM. It also gave a GI50 (PC-3 prostate) greater than 100 µM, a TGI (PC-3 prostate) greater than 100 µM and a GI50 (RPMI-8226 leukemia) greater than 100 µM. It also gave a TGI (RPMI-8226 leukemia) greater than 100 µM, a GI50 (RXF 393 renal) greater than 100 µM and a TGI (RXF 393 renal) greater than 100 µM. It also gave a GI50 (SF-268 CNS) greater than 100 µM, a TGI (SF-268 CNS) greater than 100 µM and a GI50 (SF-295 CNS) greater than 100 µM. The TGI (SF-295 CNS) was greater than 100 µM, the GI50 (SF-539 CNS) was greater than 100 µM and the TGI (SF-539 CNS) was greater than 100 µM. It also gave a GI50 (SK-MEL-2 melanoma) greater than 100 µM, a TGI (SK-MEL-2 melanoma) greater than 100 µM and a GI50 (SK-MEL-28 melanoma) greater than 100 µM. For the same molecule, the TGI (SK-MEL-28 melanoma) was greater than 100 µM, the GI50 (SK-OV-3 ovarian) was greater than 100 µM and the TGI (SK-OV-3 ovarian) was greater than 100 µM. For the same molecule, the GI50 (SNB-19 CNS) was greater than 100 µM, the TGI (SNB-19 CNS) was greater than 100 µM and the GI50 (SNB-75 CNS) was greater than 100 µM. The TGI (SNB-75 CNS) was greater than 100 µM, the GI50 (SR leukemia) was greater than 100 µM and the TGI (SR leukemia) was greater than 100 µM. For the same molecule, the GI50 (SW-620 colon) was greater than 100 µM, the TGI (SW-620 colon) was greater than 100 µM and the GI50 (T-47D breast) was greater than 100 µM. The TGI (T-47D breast) was greater than 100 µM, the GI50 (U251 glioblastoma) was greater than 100 µM and the TGI (U251 glioblastoma) was greater than 100 µM. It also gave a GI50 (UACC-62 melanoma) greater than 100 µM, a TGI (UACC-62 melanoma) greater than 100 µM and a GI50 (UO-31 renal) greater than 100 µM. For the same molecule, the TGI (UO-31 renal) was greater than 100 µM.
